Source: patent publication US20100286220A1, “HNF4alpha ANTAGONISTS AND METHODS OF USE” (Burnham Institute for Medical Research, priority 2009, published 2010)
Entries after “also recorded” stand apart in the source; their conditions may differ.

Columns and labels:
[1] = test system: endogenous insulin message; assay: Secondary confirmatory assay, endogenous insulin message in T6PNE cells; type: cell-based, human
HNF1α transcription = assay: HNF1α transcription; type: cell-based
Experimental: HNF1α is a downstream target of HNF4α and has a known binding site on the human insulin gene promoter. […] It is unclear whether HNF4α is modulating the insulin promoter directly or indirectly through a downstream target. Overexpression of HNF1α or HNF4α would overcome the repressive effects of BIM5078. The repressive effect of BIM5078 was lost when it was added to T6PNE cells with high levels of induced E47 (FIG. 8). High E47 levels are thought to resemble the normal state of a β-cell while low levels of E47 to simulate the stress condition.

human PPARγ = molecular target: T1, human PPARγ (Homo sapiens, UniProt P37231); assay: PPAR response element (PPRE)-luciferase reporter assay in HeLa cells; type: cell-based; settings: PPRE reporter plasmid with or without human PPARγ expression vector
T1 construct: expressed in transfected cells; host or cells: HeLa cells
T1 sequence (P37231 1-505): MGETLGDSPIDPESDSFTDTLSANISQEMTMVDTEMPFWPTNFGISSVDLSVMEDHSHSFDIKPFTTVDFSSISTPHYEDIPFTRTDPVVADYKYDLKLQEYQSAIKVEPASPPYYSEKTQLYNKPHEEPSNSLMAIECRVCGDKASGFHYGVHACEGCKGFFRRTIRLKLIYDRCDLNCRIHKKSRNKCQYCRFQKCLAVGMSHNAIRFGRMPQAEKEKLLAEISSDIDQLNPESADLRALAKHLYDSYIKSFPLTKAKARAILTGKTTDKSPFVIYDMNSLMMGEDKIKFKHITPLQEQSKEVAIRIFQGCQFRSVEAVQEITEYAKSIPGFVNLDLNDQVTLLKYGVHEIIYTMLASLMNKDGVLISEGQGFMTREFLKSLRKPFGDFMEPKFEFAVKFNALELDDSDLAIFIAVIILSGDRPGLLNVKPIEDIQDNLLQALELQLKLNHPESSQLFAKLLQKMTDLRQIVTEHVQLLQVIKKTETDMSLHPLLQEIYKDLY
Experimental: The core structure of BIM5078, benzimidazole, is related to known PPARγ compounds that functions as agonists or antagonists. BIM5078 was used in a PPAR response element (PPRE)-luciferase reporter assay. HeLa cells were co-transfected with a PPAR response element (PPRE) reporter plasmid and a human PPARγ expression vector. […] Known PPARγ agonists were used as positive controls. The same PPARγ agonist compounds were tested on T6PNE ins-eGFP for their ability to repress the insulin promoter. Known PPARγ agonists are unable to suppress insulin gene transcription. Similarly, other PPAR agonists of the alpha and delta class were also negative in the assay. However, because HNF4α also binds to PPREs, BIM5078's ability to bind HNF4α was further investigated.

HBV = HBV surface antigen levels in Huh7 cells transfected with wild-type HBV construct (pWTD); type: cell-based, Hepatitis B virus; settings: GP33 and GP36 doublet bands
Source text: (§1) The HBsAg is seen as doublet bands with different glycosylation forms (GP33 and GP36).
(§2) BIM5078 is an HNF4α antagonist and can be useful in treatment of diseases involving HNF4α modulation. There are a number of HNF4α binding sites in the HBV genome, including the enhancer region, the core promoter and the polymerase. BIM5078 can downregulate the core and polymerase, and it has been discovered that it can effectively suppress or eliminate HBV proliferation. Also, the HNF4α binding sites are well-conserved and no mutations of these sites have yet been discovered in the various HBV strains. Thus, targeting HNF4α can circumvent the resistance seen with traditional therapies. […] The ability of the HNF4α antagonist BIM5078 to reduce viral production in Huh7 cells transfected with the wild-type HBV construct (pWTD) was tested. […] The large decrease in the two glycosylation forms of the surface antigen was visualized as doublet bands (FIG. 9).

[2] = as above; type: cell-based, Hepatitis B virus
Source text: as §1, §2

HNF4α = molecular target: T2, HNF4α (Homo sapiens, UniProt P41235); assay: HNF4α subcellular localization; type: cell-based
T2 sequence (P41235 1-474): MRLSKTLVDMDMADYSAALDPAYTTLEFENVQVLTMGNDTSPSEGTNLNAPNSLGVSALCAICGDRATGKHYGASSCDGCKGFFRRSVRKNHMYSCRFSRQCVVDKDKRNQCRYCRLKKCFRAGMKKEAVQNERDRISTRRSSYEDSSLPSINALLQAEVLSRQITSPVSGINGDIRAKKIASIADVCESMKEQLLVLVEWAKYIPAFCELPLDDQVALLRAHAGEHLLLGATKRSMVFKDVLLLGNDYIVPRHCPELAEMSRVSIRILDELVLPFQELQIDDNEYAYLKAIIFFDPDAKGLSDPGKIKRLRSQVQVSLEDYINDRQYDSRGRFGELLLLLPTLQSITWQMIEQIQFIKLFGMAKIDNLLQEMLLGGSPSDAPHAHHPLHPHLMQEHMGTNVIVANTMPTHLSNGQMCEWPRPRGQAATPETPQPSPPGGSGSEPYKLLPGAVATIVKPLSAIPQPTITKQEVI
Source text: Many ligands for nuclear receptor subfamilies induce the translocation of their receptors between the cytoplasm and the nucleus.

[3] = hoFH patients, ezetimibe 10 mg/day added to statin 80 mg/day; cited from earlier work
human insulin promoter = assay: High-throughput screen / confirmatory assay, insulin promoter-GFP (ins-GFP) transgene in T6PNE cells; type: cell-based; settings: T6PNE ins-eGFP cells
Source text: Primary β-cells are in short supply and have a strong tendency to undergo apoptosis when manipulated in culture. Therefore, a β-cell model was used for the studies regarding β-cell growth and differentiation. T6PNE cells were derived from human fetal islets and were engineered to express the transcription factors PDX-1, NeuroD1, and E47, which are all present in the human β-cell. It was observed that induction of E47 upregulates the expression of many genes associated with β-cell function, including insulin. Consistent with what occurs in primary β-cells, it also was observed that E47 induction caused growth arrest in the cell line. Therefore, E47 was […] in T6PNE cells. […] Therefore, expression in the transfunctioned cell can be used as a baseline so both up and down regulators of the insulin promoter can be monitored in the screening assays. […] Insulin expression was monitored and visualized by the ins-GFP transgene. Hits were determined and dependent on the ability to differentiate between a baseline condition and the corresponding positive or negative control. […]
The HTS was performed in a 384-well format where primed T6PNE cells express the ins-GFP transgene and the test compound was added 24 hours later. […] The Images were then analyzed using algorithms (Jeff Price at the Screening Center at the Burnham Institute). […]

With 4-hydroxytamoxifen [reference compound] the “endogenous insulin message with E47 induction” value ([1]; T6PNE cells with inducible E47) was “upregulated in a dose-dependent manner”.
With `Cc1nc2ccccc2n1S(=O)(=O)c1cc([N+](=O)[O-])ccc1Cl` [BIM5078, 1-(2-Chloro-5-nitrophenylsulfonyl)-2-methyl-1H-benzo[d]imidazole] the “repressive effect on insulin expression at high E47” value ([1]; T6PNE cells with high levels of induced E47 (high 4-hydroxytamoxifen)) was “lost”, the HNF1α transcription (HNF1α transcription) was “decrease the HNF1α transcription” and the “activation of PPRE reporter” value (human PPARγ) was “activated the PPRE”. For the same compound, the “HBV surface antigen (HBsAg) levels” value (HBV) was “decreased their levels of surface antigen; also recorded: decreased the HBsAg protein expression”, the actin levels [2] was “no dependence” and the “HNF4α localization upon addition of compound” value (HNF4α) was “localized entirely in the nucleus”.
In the case of `O=C1[C@H](CC[C@H](O)c2ccc(F)cc2)[C@@H](c2ccc(O)cc2)N1c1ccc(F)cc1` [ezetimibe], the “total reduction of LDL-C levels” value [3] is listed as 27%.
With `CCCCCCCCCCCCCCCC(=O)O` [palmitic acid] the “insulin promoter activity / insulin gene transcription, effect in words” value (human insulin promoter) was “suppresses the insulin promoter activity in a dose-dependent fashion”.
